This passage reports Ki results from ChEMBL document CHEMBL5727382, “[1,2,3]triazolo[4,5-D]pyrimidine derivatives with affinity for the type-2 cannabinoid receptor” (2019).

SMILES strings stand for the structures.

The target of assay [1] is Cannabinoid receptor 2 (Homo sapiens, UniProt P34972). The assay can be described thus: (§1) Radioligand Binding Assay: he affinity of the compounds of the invention for cannabinoid receptors was determined using recommended amounts of membrane preparations (PerkinElmer) of human embryonic kidney (HEK) cells expressing the human CNR1 or CNR2 receptors in conjunction with 1.5 or 2.6 nM [3H]-CP-55,940 (Perkin Elmer) as radioligand, respectively. Binding was performed in binding buffer (50 mM Tris, 5 mM MgCl2, 2.5 mM EDTA, and 0.5% (wt/vol) fatty acid free BSA, pH 7.4 for CB1 receptor and 50 mM Tris, 5 mM MgCl2, 2.5 mM EGTA, and 0.1% (wt/vol) fatty acid free BSA, pH 7.4 for CB2 receptor) in a total volume of 0.2 mL for 1 h at 30° C. shaking. The reaction was terminated by rapid filtration through microfiltration plates coated with 0.5% polyethylenimine (UniFilter GF/B filter plate; Packard). Bound radioactivity was analyzed for Ki using nonlinear regression analysis (Activity Base, ID Business Solution, Limited), with the Kd values for [3H]CP55,940 determined from saturation experiments.
Sequence of Cannabinoid receptor 2 (P34972 whole entry): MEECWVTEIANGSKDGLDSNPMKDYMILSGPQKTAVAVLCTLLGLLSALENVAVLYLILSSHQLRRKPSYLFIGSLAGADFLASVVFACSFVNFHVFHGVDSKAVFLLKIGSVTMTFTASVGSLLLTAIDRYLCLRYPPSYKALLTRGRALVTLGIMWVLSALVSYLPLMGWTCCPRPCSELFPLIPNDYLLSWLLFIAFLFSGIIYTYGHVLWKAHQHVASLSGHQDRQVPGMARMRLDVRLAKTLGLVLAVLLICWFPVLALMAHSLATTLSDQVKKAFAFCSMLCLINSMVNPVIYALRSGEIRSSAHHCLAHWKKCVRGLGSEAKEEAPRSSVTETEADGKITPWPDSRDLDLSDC

Assay [2] has as its target Cannabinoid receptor 1 (Homo sapiens, UniProt P21554). The assay is described as §1.

Sequence of Cannabinoid receptor 1 (P21554 whole entry): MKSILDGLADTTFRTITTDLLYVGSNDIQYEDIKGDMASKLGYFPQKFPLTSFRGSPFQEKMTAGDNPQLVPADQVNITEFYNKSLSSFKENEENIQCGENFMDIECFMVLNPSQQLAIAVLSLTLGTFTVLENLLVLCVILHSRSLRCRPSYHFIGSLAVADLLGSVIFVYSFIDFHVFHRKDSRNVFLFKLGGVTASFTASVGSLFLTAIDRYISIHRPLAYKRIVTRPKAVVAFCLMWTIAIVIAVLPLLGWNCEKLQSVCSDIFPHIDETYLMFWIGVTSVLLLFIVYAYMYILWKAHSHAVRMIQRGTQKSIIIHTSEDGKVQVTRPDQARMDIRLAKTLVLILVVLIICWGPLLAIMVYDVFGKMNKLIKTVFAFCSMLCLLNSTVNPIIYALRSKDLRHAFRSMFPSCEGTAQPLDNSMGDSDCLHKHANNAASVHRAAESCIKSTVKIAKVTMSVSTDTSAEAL

Broadly, the Ki is the dissociation constant of the complex between target and ligand, obtained from inhibition or displacement. For the molecule `CC(C)(C)c1nc(N2CCC(N=C=S)C2)c2nnn(Cc3ccccc3Cl)c2n1` (centres undefined), the Ki in assay [1] was determined as 1.36 µM; in assay [2], 5.64 µM.
In the same order, the values of `Cc1nonc1Cn1nnc2c(N3CC[C@@H](S)C3)nc(C(C)(C)C)nc21` (single isomer, unassigned) are 0.64 µM and 8 µM.
